Two compounds from US6479549B2, “Carnosic acid derivatives for promoting synthesis of nerve growth factor” (Nagase & Company, Ltd., priority 2000, dated 2002) can be followed below.

Experiment [1] has as its system Human glioblastoma cells (T98G cell line). Put plainly: NGF content in culture supernatant of T98G cells (sandwich enzyme immunoassay). The class given is cell-based. The settings on record: for NGF Content in sample solution: 100 uM effective ingredient in Opti-MEM medium, T98G cells, 4 days cultivation, mean ± standard deviation, comparative example (none) 6.3 ± 1.2; for Relative NGF content: 100 uM, ratio of NGF content in example solution to that in comparative example solution (=1.0). On the procedure: Human glioblastoma cells (T98G cell line) were seeded in a MEM medium containing fetal bovine serum (10%; Gibco), sodium pyruvate (x 1; Gibco) and nonessential amino acids (x 1; Gibco) in wells of a flat-bottom 96-well plate (Corning), in a cell density of 2×10^4/well, and cultivated in a CO2 incubator (37° C., 5% CO2) for 3 days. The medium was then replaced by an Opti-MEM medium (containing 5 mg/ml of bovine serum albumin). The cultivation was continued for further 6 days with replacing the medium at intervals of 3 days.
After removing the medium, an Opti-MEM medium (containing 5 mg/ml of bovine serum albumin) containing 100 uM (micromole) of carnosic acid diacetate obtained in Example 1 was added to each well in an amount of 50 ul (microliter)/well, and the cultivation was continued for further 4 days. After the cultivation, the supernatant was taken as a sample solution.
On the other hand, 1 ug/ml of an anti-NGF antibody (Promega) solution (50 ul) was added to each well of a 96-well microplate (Nunc), and the plate was allowed to stand overnight at 4° C. After washing the plate with PBS(-) (Nissui Pharmaceuticals), 1% of a bovine serum albumin (Sigma) solution (100 ul) was added to each well of the plate and the plate was allowed to stand at room temperature for 4 hrs to block the plate. […]
Subsequently, 0.4 unit/ml of a beta-galactosidase-labeled anti-NGF antibody (Boehringer Mannheim) solution (50 ul) was added to each well of the plate, and allowed to react at room temperature for one hour. […] The fluorescence intensity of 4-methylumbelliferone produced was measured on a fluorescence plate reader, and the content of NGF contained in the sample solution was determined using a standard curve obtained from a standard solution (human beta-NGF; PEPRO TECH EC).
The content of NGF contained in the sample solution was determined as described in Example 4, except that an Opti-MEM medium (containing 5 mg/ml of bovine serum albumin) containing 100 uM of carnosic acid diacetate methyl ester obtained in Example 2 was used in an amount of 50 ul/well, instead of carnosic acid diacetate.
The content of NGF contained in the sample solution was determined as described in Example 4, except that an Opti-MEM medium (containing 5 mg/ml of bovine serum albumin) containing 100 uM of carnosic acid methyl ester obtained in Example 3 was used inan amount of 50 ul/well, instead of carnosic acid diacetate.
The content of NGF contained in the sample solution was determined as described in Example 4, except that an Opti-MEM medium (containing 5 mg/ml of bovine serum albumin) not containing carnosic acid diacetate was used in an amount of 50 ul/well, instead of the Opti-MEM medium containing carnosic acid diacetate.

In another experiment the test system is Wistar male rats. Put plainly: Ethanol-induced stomach ulcers in rats (ulcer index). The class given is in vivo. The settings on record: 10 mg/kg body weight oral. On the procedure: To Wistar male rats (5 rats per group) of 180-200 g body weight fasted for 24 hours before the start of a test, carnosic acid diacetate obtained in Example 1 was orally administered in a dose level of 10 mg per kg body weight, after suspending it in water. After 30 minutes of the administration, 1 ml of ethanol (99.5%) was orally administered to each rat. After one hour of the ethanol administration, laparotomy was carried out and the lengths of all ulcers developed in the stomach were measured arld added up. The total lengths of ulcers are taken as ulcer indexes.
The lengths of all ulcers developed in the stomach were measured and added up as described in Example 7, except that water containing carnosic acid methyl ester (10 mg per kg body weight) was used instead of water containing carnosic acid diacetate. The total lengths of ulcers are taken as ulcer indexes.
The lengths of all ulcers developed in the stomach were measured and added up as described in Example 7, except that water not containing carnosic acid diacetate was used instead of water containing carnosic acid diacetate. The total lengths of ulcers are taken as ulcer indexes.

Take `COC(=O)[C@]12CCCC(C)(C)C1CCc1cc(C(C)C)c(O)c(O)c12` (stereo partly drawn) [Carnosic acid methyl ester, carnosic acid methyl ester]: in experiment [1], the “NGF Content in sample solution” value stood at 33.3 ± 2.8 pg/mL and the “Relative NGF content” value is 5.3. This compound also showed a Ulcer index with Wistar male rats (30 minutes before 1 ml ethanol (99.5%) oral, total length of stomach ulcers 1 hour after ethanol, mean ± standard deviation, comparative example 62.4) of 33.6 ± 3.6 mm. In addition, the Relative ulcer index in the experiment with Wistar male rats (ratio of ulcer index in example to that in comparative example 2 (=100)) worked out at 53.8.

On to `COC(=O)[C@@]12CCCC(C)(C)[C@H]1CCc1cc(C(C)C)c(OC(C)=O)c(OC(C)=O)c12` [Carnosic acid diacetate methyl ester, carnosic acid diacetate methyl ester], for which, in experiment [1], the “NGF Content in sample solution” value amounted to 50.6 ± 4.3 pg/mL and the “Relative NGF content” value is listed as 8.0.
